Earlier results as cited in US10172810B2 (priority 2003, dated 2019).

Conditions: pH 6.8

In the case of CN1CCCC1c1cccnc1 (stereo not shown) [nicotine], the “nicotine in the free base form” value is listed as “about 10%”.
